Data reported in publication PMC8871626, “UPLC-PDA-ESI-QTOF-MS/MS fingerprint of purified flavonoid enriched fraction of Bryophyllum pinnatum; antioxidant properties, anticholinesterase activity and in silico studies” (Pharmaceutical Biology, 2021).

Assays:
Format in all cases: biochemical
rat serum BuChE = molecular target: T1, rat serum BuChE (Rattus norvegicus, UniProt Q9JKC1); assay: BuChE inhibition, Ellman's colorimetric method; conditions: BuChE IC50, rat blood enzyme, butyrylthiocholine iodide
T1 construct: from tissue; host or cells: rat blood (serum)
Description: Whole-brain tissue from adult male Wistar rat was used as a source of AChE enzyme and a lipid-rich media for lipid peroxidation assay while rat blood tissue was used as a source of BuChE enzyme.
For the enzyme source, the rat brains were homogenized in a homogenizer with 10 volumes of a homogenization buffer (10 mM Tris-HCl, pH 7.2) containing 1 M NaCl, 50 mM MgCl2 and1% Triton X-100 and centrifuged at 10,000 rpm for 30 min. The resulting supernatants were collected, and the solution of these supernatants was used as an enzyme source. The temperature was maintained at 4 °C throughout the excretion procedure. The rate of AChE hydrolysis was monitored spectrophotometrically. […] Absorbance at 405 nm was recorded immediately after adding Ellman’s reaction mixture (3.5 mL; 0.5 mM acetylthiocholine, 1 mM DTNB) in a 50 mM sodium phosphate buffer (pH 8.0) to the reaction mixture. Readings were repeated for 30 min to verify the reaction. […] The percentage of AChE inhibition was calculated using the following formula: (3) %Cholinesterase inhibition=[A control – A sample/Acontrol]×100
Assessment of BuChE inhibition was performed as described in Equation (3) except that the enzyme solution was (100 μL) acetylthiocholine iodide was replaced with butyrylthiocholine iodide. All other reagents and conditions remained the same.

[1] = DPPH radical scavenging assay; conditions: for DPPH radical IC50: 3.125–100 µg/mL, 30 min in the dark, absorbance 518 nm, triplicate; for IC50: IC50 values in µM presented for comparison
Description: Based on the principle, when DPPH reacts with an antioxidant compound that can donate hydrogen, it is reduced. The change in colour from deep violet to golden/light yellow can be measured at 518 nm. Briefly, 1 mL of 0.3 mM of DPPH solution was added to 1 mL of each of the test solutions. […] The mixtures were vortexed thoroughly and allowed to stand at room temperature in the dark for 30 min, […]. The absorbance values were recorded at 518 nm, and converted into percentage antioxidant activity, using the formula below: Results were expressed as a percentage of inhibitions (100%). […] Each test was carried out in triplicates.
The % DPPH scavenging effect of the antioxidant was calculated as follows: (1) %DPPH scavenging effect=[A control – A sample/Acontrol]× 100

[2] = tested on: Fe2+-induced lipid peroxidation in rat brain homogenate; assay: Fe2+-induced lipid peroxidation (TBARS) assay in brain homogenate; conditions: for Lipid peroxidation IC50: FeSO4, 37 °C 30 min, TBARS 532 nm; for IC50: IC50 values in µM presented for comparison, read-out: LP (IC50 in µM)
Description: Thiobarbituric acid reactive species (TBARS) assay was used to measure the lipid peroxide formed using brain tissue homogenates as lipid-rich media, as described by Ruberto et al. ([2000]) with slight modifications. […] Thereafter, 0.05 mL of FeSO4 was added and the mixture was incubated at 37 °C for 30 min. Then, 1.5 mL of acetic acid was added, followed by 1.5 mL of TBA in SDS. The resulting mixture was mixed and heated at 95 °C for 60 min. After cooling, 5 mL of butanol was added and the mixture was centrifuged at 3000 rpm for 10 min. The absorbance of the organic upper layer was measured at 532 nm and the percentage inhibition was calculated with the formula: (2) %inhibition=[A control – A sample/Acontrol]×100

T1 sequence (Q9JKC1 24-597): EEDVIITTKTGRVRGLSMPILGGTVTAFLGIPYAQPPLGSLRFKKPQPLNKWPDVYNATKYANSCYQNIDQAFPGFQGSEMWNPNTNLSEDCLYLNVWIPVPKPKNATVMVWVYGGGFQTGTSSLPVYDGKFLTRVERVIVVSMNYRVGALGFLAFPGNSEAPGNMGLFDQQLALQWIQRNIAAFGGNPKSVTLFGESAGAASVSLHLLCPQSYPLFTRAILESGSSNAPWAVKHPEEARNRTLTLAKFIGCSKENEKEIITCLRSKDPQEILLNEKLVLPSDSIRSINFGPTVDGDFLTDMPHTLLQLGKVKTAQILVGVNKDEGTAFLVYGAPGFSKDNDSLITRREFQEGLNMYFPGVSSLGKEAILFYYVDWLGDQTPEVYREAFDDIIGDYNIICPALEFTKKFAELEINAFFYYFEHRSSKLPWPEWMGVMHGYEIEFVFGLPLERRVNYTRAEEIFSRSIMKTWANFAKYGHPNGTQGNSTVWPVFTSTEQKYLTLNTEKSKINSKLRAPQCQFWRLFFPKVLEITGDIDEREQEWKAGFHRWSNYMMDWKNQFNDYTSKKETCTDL

| Compound | IC50 (rat serum BuChE) [µM] | DPPH radical IC50 [1] [µg/mL] | IC50 [1] [µM] | Lipid peroxidation IC50 [2] [µg/mL] | IC50 [2] [µM] |
| --- | --- | --- | --- | --- | --- |
| O=c1c(O)c(-c2ccc(O)c(O)c2)oc2cc(O)cc(O)c12 [Quercetin] | 80.5 | 13.803 ± 0.34 | 45.7 ± 1.13 | 25.242 ± 1.97 | 83.51 ± 0.654 |
| O=C1O[C@H]([C@@H](O)CO)C(O)=C1O [Ascorbic acid, ascorbic acid] |  | 10.186 ± 0.14 | 57.8 ± 0.827 | 14.393 ± 0.54 | 81.72 ± 0.309 |
